In the test the target is T1, Muscarinic acetylcholine receptor M4 (Homo sapiens, UniProt P08173).
T1 sequence (P08173 whole entry): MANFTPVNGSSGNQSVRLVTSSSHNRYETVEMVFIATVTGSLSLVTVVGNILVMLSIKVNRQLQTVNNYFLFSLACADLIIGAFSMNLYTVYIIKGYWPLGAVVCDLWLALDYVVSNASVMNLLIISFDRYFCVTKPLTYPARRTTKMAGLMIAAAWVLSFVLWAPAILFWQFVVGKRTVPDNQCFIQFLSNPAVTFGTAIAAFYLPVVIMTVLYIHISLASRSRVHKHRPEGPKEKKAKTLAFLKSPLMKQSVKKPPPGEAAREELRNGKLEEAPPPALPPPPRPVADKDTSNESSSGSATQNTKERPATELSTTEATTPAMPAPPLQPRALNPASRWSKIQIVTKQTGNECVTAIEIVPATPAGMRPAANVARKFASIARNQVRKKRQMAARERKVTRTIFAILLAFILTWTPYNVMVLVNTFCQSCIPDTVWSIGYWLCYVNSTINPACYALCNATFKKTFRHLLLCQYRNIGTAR
Kind of test: ChEBML_1696020. The source says: Positive allosteric modulation of human M4 receptor expressed in CHO cells co-expressing Gqi5 assessed as increase in acetylcholine-induced calcium mobilization

As for `N#Cc1cnc2ccc(F)cc2c1N1CCC(C(=O)NCc2ccccc2)CC1`, the half-maximal effective concentration (EC50) (commonly the concentration giving half of the maximal effect) turned out to be 0.897 µM.

These data come from BindingDB's records for doi:10.1016/j.bmcl.2017.08.043 (Vanderbilt University, 2017).
